This passage reports Resistance factor, tumor growth inhibition and tumor weight reduction results from patent US20210292306A1, “NOVEL INDOLE DERIVATIVE AND ANTI-CANCER CONPOSITION CONTAINING SAME” (KOREA RESEARCH INSTITUTE OF BIOSCIENCE AND BIOTECHNOLOGY, priority 2016, published 2021).

In assay [1] the test system is K562/ADR. Put plainly: Anti-proliferative activity in cancer cells showing multiple drug resistance (MTT assay). Conditions: ratio of IC50 K562/ADR to IC50 K562. Format: cell-based. How it is done: (§1) HeLa cells (ATCC, USA), which are a human cervical cancer cell line, were dispensed into a 96-well plate at 2×10^3 cells/well, and the cells were treated with DMSO or the indole derivatives of the present invention, and then allowed to grow for 4 days. And then, MTT (3-(4,5-Dimethylthiazol-2-yl)-2,5-diphenyltetrazolium bromide) reagent was added to the wells at 10 μl/well. After 2 hours, the absorbance was measured at “OD 450” and statistical values were obtained using the plizm6 program. The data represent mean values of the results of two repeated assays (Table 1). Specifically, K562 and MCF7 (Bio Evaluation Center, Korea Research Institute of Bioscience and Biotechnology, Korea), and K562/ADR and MCF7/ADR (Bio Evaluation Center, Korea Research Institute of Bioscience and Biotechnology, Korea), which are multiple drug-resistant cell lines of the above mentioned cell lines, respectively, were cultured on a microtiter plate at 1-3×10^3 cells/well.

Assay [2] has as its system MCF7/ADR. Described as above. Type of assay: cell-based. Particulars: ratio of IC50 MCF7/ADR to IC50 MCF7. How it is done:
as §1

Assay [3] has as its system human-derived skin cancer cell line (A431). The assay can be described thus: Anti-cancer effect in human-derived skin cancer cell (A431) implantation nude mouse model. Format: in vivo, BALB/C female nude mouse. Particulars: for tumor growth inhibition: day 23; for tumor weight reduction: excised A431 tumors weighed. How it is done:
The human cancer cell line A431 which was kept frozen in liquid nitrogen was thawed and cell culture was conducted. Cells were cultured in a CO2 incubator (Forma, USA) at 37° C. and 5% CO2 for an appropriate period of time. On the last day of culture, all cancer cells were collected and counted and the cell concentration was adjusted to 1×10^7 cells/ml using serum free media. The culture solution thus prepared was injected subcutaneously in the axillary region between the scapula and chest wall in an amount of 0.3 ml per BALB/C female nude mouse (5 weeks old, Nara Biotech) (3×10^6 cells/mouse). […] To examine the toxicity levels of the repeated intraperitoneal administration of WCI-1031 to A431 cancer cell implantation nude mice, general symptoms and weight changes of the animals were observed during the administration period. […] On day 23 after the start of the drug administration, blood was taken from the mice through ophthalmic veins 2 hours after the last administration, and the mice were sacrificed using CO2 gas. Then the mice were photographed and the tumors was isolated and weighed in a chemical balance. After taking photographs, each tumor was divided in half, and the resultant tumors were fixed to liquid nitrogen and formalin, respectively.

As to `CC(=O)O[C@H]1C(=O)[C@@]2(C)[C@H]([C@H](OC(=O)c3ccccc3)[C@]3(O)C[C@H](OC(=O)[C@H](O)[C@@H](NC(=O)c4ccccc4)c4ccccc4)C(C)=C1C3(C)C)[C@]1(OC(C)=O)CO[C@@H]1C[C@@H]2O` [Taxol, taxol], the figures for the Resistance factor in assay [1] and in assay [2] were 519.6 and 438.38, respectively.

Consider `COc1cc2c(c(OC)c1OC)-c1ccc(OC)c(=O)cc1[C@@H](NC(C)=O)CC2` [colchicine, reference compound], for which the results for the Resistance factor in assay [1] and in assay [2] were 22.91 and 34.15, respectively. This compound returned a tumor growth inhibition in assay [3] (colchicine 0.07 mg/kg, days 0-23, p<0.05) of 17.6%. Further, the tumor weight reduction in assay [3] (colchicine 0.07 mg/kg, p<0.05) worked out at 17.6%.

For `COc1cccc2c1C(=O)c1c(O)c3c(c(O)c1C2=O)C[C@@](O)(C(=O)CO)C[C@@H]3O[C@H]1C[C@H](N)[C@H](O)[C@H](C)O1` [Doxorubicin, doxorubicin], the Resistance factor worked out at 767.91 in assay [1] and 169.57 in assay [2].

`CC[C@]1(O)C[C@@H]2CN(CCc3c([nH]c4ccccc34)[C@@](C(=O)OC)(c3cc4c(cc3OC)N(C)[C@H]3[C@@](O)(C(=O)OC)[C@H](OC(C)=O)[C@]5(CC)C=CCN6CC[C@]43[C@@H]65)C2)C1` [Vinblastine, vinblastine]: the Resistance factor is recorded as 15.63 in assay [1] and 18.17 in assay [2].

Consider `O=c1[nH]cc(F)c(=O)[nH]1` [Example 5-FU, 5-FU, reference compound], for which the tumor growth inhibition in assay [3] (5-FU 2 mg/ml at 10 ml/kg, days 0-2, 5-9, 12-16, 19-23, p<0.01) turned out to be 20.7%. For the same compound, the tumor weight reduction in assay [3] (5-FU 2 mg/ml at 10 ml/kg, p<0.05) was 20.8%.
